Results on 1 molecule are retold here after patent US7728174B2, “Continuous hydrogenation processes for the preparation of xylylenediamines” (BASF SE, priority 2005, dated 2010).

This data set can be described thus: solubility of IPN in ammonia, meta-xylylenediamine and their mixtures. It is filed as physicochemical.

In the case of `N#Cc1cccc(C#N)c1` [IPN, 1,3-dicyanobenzene], the “solubility of IPN in the mixture” value is listed as “about 30 % by weight” (Example 1 mixture: 178 g/h circulation stream [13] and 94 g/h fresh ammonia, at 60° C.); “about 25 % by weight” (Example 2 mixture: 320 g/h circulation stream [13] and 40 g/h fresh ammonia, at 60° C.). Further, the “solubility of IPN” value reads like this: (in MXDA, at 70° C.) “approx. 20 % by weight”; (in NH3, at 60° C.) “approx. 44 % by weight”; (in a mixture of approximately equal parts by mass of meta-xylylenediamine and liquid ammonia, at 60° C.) “approx. 30 % by weight”; (in meta-xylylenediamine, at 60° C.) “approx. 15 % by weight”.
